In article PMC6009937, “Comparing hydrazine-derived reactive groups as inhibitors of quinone-dependent amine oxidases” (Journal of Enzyme Inhibition and Medicinal Chemistry, 2017):
Where “and” joins values, the source holds several entries; their conditions need not be identical. Identical values can stand only once. Like-named read-outs stand apart in the source and are kept apart here.

Columns and labels:
[1] = biological target: T1, Lysyl oxidase (LOX) (Bos taurus, UniProt P33072); experiment: LOX activity assay (Amplex UltraRed/HRP fluorescence) after preincubation of enzyme with inhibitor; type: biochemical, bovine; conditions: for IC50 / Selectivity factor (LOX IC50 value divided by LSDAO IC50 value): 10-min preincubation; for IC50: 37 °C, read-out: IC50 LOX; for Selectivity factor (LOX IC50 value divided by LSDAO IC50 value): LOX vs LSDAO; for remaining activity at 40 µM: 40 µM inhibitor; for remaining activity at 40 µM / remaining activity at 100 µM / remaining activity at 500 µM / remaining activity at 4 µM / remaining activity at 7 µM / remaining activity at 20 µM: read-out: Average Percent Activity Remaining, LOX; for remaining activity at 100 µM: 100 µM inhibitor; for remaining activity at 500 µM: 500 µM inhibitor; for LOX k2 (range) / KI (inactivation): Kitz-Wilson analysis; for LOX k2 (range): rate constant for irreversible reaction; for KI (inactivation): reversible binding constant, read-out: LOX KI^-1 (range); for remaining activity at 4 µM: 4 µM inhibitor; for remaining activity at 7 µM: 7 µM inhibitor; for remaining activity at 20 µM: 20 µM inhibitor
T1 construct: LOX was isolated from bovine aorta; from tissue; host or cells: bovine aorta
T1 sequence (P33072 170-418): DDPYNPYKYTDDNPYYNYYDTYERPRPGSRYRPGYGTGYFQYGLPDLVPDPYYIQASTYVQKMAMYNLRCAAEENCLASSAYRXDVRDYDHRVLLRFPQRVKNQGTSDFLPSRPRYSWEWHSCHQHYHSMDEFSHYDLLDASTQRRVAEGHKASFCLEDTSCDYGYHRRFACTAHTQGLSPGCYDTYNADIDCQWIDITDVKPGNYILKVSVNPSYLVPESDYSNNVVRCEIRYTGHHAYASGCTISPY
Method: LOX was isolated from bovine aorta at 4 °C using slight modifications of previously published procedures. All steps were carried out at in 16 mM phosphate, pH 7.8 (buffer B). After blending the aorta in buffer B containing 400 mM NaCl and 1 mM EDTA to remove soluble contaminants, the enzyme was extracted with buffer B containing 4 M urea and 1 mM EDTA. The crude enzyme extract was filtered, diluted with an equal volume of buffer B to obtain a urea concentration of 2 M, and loaded onto a DEAE column. After washing with buffer B containing 400 mM NaCl, the enzyme was eluted with buffer B containing 400 mM NaCl and 6 M urea. The urea concentration was reduced to 4 M by adding buffer B, and the solution was added to a slurry of ceramic hydroxyapatite in buffer B containing 4 M urea. After stirring, the supernatant was removed by filtration and dialyzed overnight against buffer B. The solution was added to a slurry of ceramic hydroxyapatite in buffer B, washed with small portions of 1 M phosphate and then buffer B, and then eluted with buffer B containing 6 M urea and 500 mM NaCl. After concentration to about 20 mL, the protein was applied to a Sephacryl S-200 gel filtration column preequilibrated with buffer B containing 50 mM NaCl, 1 mM EDTA, and 6 M urea and eluted with the same buffer. Active fractions were concentrated to 1 mL. Total protein concentration for 6 M urea solutions[33] was determined by its absorption at 280 nm using a molar extinction coefficient of 8.39 × 10^4 M^−1 cm ^−1.
(§1) The activity assay is adopted from the method described by Palamakumbura et al.[35]. Enzyme and inhibitor were incubated at 37 °C for the desired inhibition time, diluted into the assay mixture, and analyzed by fluorescence (Agilent Technologies Cary Eclipse Fluorescence Spectrometer, Cary Eclipse Software, 37 °C, λex = 568 and λem = 581 nm). The assay was carried out in boric acid buffer (50 mM, pH 8.2) with 1.2 M urea for LOX or in phosphate buffer (0.1 M, pH = 7.0) for LSDAO. The final reagent concentrations in the assay mixture were 10 mM cadaverine, 10 μM Amplex UltraRed (Life Technologies, Carlsbad, CA), and 1 U/mL horse radish peroxidase (Amresco, Solon, OH).
(§2) The enzyme activity, which is proportional to the rate of increase in fluorescence, was measured for each experiment. Residual activity was calculated by dividing each rate by a maximum rate determined in the absence of inhibitor such that [residual activity] = ([rate with inhibitor] – [baseline rate])/([maximum rate] – [baseline rate]). […] The residual activities from replicate experiments were averaged. For each inhibitor concentration, log([average residual activity]) was plotted against inhibition time. Linear lines of best fit forced through the origin were calculated for each data set using Graphpad Prism 5.0b (La Jolla, CA). For each inhibitor, the slopes of these lines (min^−1) were plotted as –1/slope against 1/[inhibitor concentration] to produce a Kitz–Wilson plot.
(§3) To quantify the selectivity of each inhibitor, we defined a numerical “selectivity factor” as the inhibitor's IC50 value for LOX divided by its IC50 value for LSDAO (Figure 3(C)).

[2] = biological target: T2, lentil seedling diamine oxidase (LSDAO) (Lens culinaris, UniProt P49252); experiment: LSDAO activity assay (Amplex UltraRed/HRP fluorescence) after preincubation of enzyme with inhibitor; type: biochemical
T2 construct: Eight-day-old lentil seedlings (Lens esculenta) were blended and extracted; from tissue; host or cells: eight-day-old lentil seedlings (Lens esculenta)
T2 sequence (P49252 19-667): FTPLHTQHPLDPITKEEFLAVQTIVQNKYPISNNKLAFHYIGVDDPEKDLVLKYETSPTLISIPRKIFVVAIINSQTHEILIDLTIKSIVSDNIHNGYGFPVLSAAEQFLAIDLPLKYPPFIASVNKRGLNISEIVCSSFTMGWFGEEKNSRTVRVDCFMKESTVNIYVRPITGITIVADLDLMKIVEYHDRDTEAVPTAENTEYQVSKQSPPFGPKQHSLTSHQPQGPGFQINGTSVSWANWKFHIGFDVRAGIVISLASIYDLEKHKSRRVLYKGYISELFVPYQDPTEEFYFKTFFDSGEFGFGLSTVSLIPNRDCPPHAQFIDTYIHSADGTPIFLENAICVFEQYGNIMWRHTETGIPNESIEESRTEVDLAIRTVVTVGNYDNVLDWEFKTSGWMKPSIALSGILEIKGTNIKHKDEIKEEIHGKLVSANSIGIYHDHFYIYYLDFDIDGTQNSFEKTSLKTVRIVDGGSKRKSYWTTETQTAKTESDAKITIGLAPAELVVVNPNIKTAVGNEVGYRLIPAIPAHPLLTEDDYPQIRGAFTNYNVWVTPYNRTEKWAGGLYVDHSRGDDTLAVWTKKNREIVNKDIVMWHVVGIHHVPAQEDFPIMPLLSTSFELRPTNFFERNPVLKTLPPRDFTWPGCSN
Method: The LSDAO extraction process was carried out at 4 °C according to the method of Floris et al.[30] with slight modifications. Eight-day-old lentil seedlings (Lens esculenta) were blended and extracted with phosphate buffer (5 mM, pH 6.0, buffer A). Ammonium sulfate (230 g/L, 40% saturation) was used to precipitate contaminants, and then additional ammonium sulfate (125 g/L, 60% saturation) was used to precipitate the LSDAO. The crude precipitate was redissolved, dialyzed against buffer A, applied to a DEAE column, and eluted with buffer A. Active fractions were adjusted to pH 6.5, applied to a CM resin column, and eluted with 5 mM phosphate buffer, pH 6.5. Active fractions were concentrated and the buffer was changed to 10 mM phosphate, pH 7.0 before the protein was applied to a Sephacryl S-300 column and eluted with the same buffer. The concentration of the LSDAO dimer was determined from its absorption at 278 nm in 0.1 M phosphate buffer[31] using a molar extinction coefficient of 2.45 × 10^5 M^−1 cm^−1.
as §1, §2, §3
From the slopes and y-intercepts of these lines, the kinetic parameters KI (the reversible binding constant) and k2 (the rate constant for irreversible reaction) (Figure 5(A)) can be calculated.

[3] = system: LOX; parameters: method as in PMID 2888772; conditions: chick embryos; cited from earlier work
[4] = 10-min preincubation, 37 °C; read-out: IC50 LSDAO
[5] = 4 min, read-out: Average Percent Activity Remaining, LSDAO
[6] = 10 min, read-out: Average Percent Activity Remaining, LSDAO
[7] = Kitz-Wilson analysis, rate constant for irreversible reaction
[8] = Kitz-Wilson analysis, reversible binding constant; read-out: LSDAO KI^-1 (range)

SMILES: CCCCNC(=O)NN [compound 5]
- IC50 [1]: 100 µM
- Selectivity factor (LOX IC50 value divided by LSDAO IC50 value) [1]: 25
- remaining activity at 40 µM ([1]; 4 min): 93%
- remaining activity at 100 µM ([1]; 4 min): 76%
- remaining activity at 500 µM ([1]; 4 min): 35%
- remaining activity at 40 µM ([1]; 10 min): 78%
- remaining activity at 100 µM ([1]; 10 min): 52%
- remaining activity at 500 µM ([1]; 10 min): 6%
- LOX k2 (range) [1]: > 0.50 min⁻¹
- KI (inactivation) [1]: > 1000 µM
- IC50 [2, 4]: 4 µM
- remaining activity at 1 µM [2, 5]: 89%
- remaining activity at 2 µM [2, 5]: 78%
- remaining activity at 4 µM [2, 5]: 69%
- remaining activity at 20 µM [2, 5]: 41%
- remaining activity at 100 µM [2, 5]: 1%
- remaining activity at 1 µM [2, 6]: 84%
- remaining activity at 2 µM [2, 6]: 71%
- remaining activity at 4 µM [2, 6]: 50%
- remaining activity at 20 µM [2, 6]: 7%
- LSDAO k2 (range) [2, 7]: 0.91 (0.50–5.0) min^-1 and 0.91 min^-1
- KI (inactivation) [2, 8]: 112 µM

SMILES: CCCCCC(=O)NN [compound 3]
- IC50 [1]: 20 µM
- Selectivity factor (LOX IC50 value divided by LSDAO IC50 value) [1]: 10
- remaining activity at 4 µM ([1]; 4 min): 93%
- remaining activity at 7 µM ([1]; 4 min): 78%
- remaining activity at 20 µM ([1]; 4 min): 69%
- remaining activity at 100 µM ([1]; 4 min): 27%
- remaining activity at 500 µM ([1]; 4 min): 8%
- remaining activity at 4 µM ([1]; 10 min): 84%
- remaining activity at 7 µM ([1]; 10 min): 75%
- remaining activity at 20 µM ([1]; 10 min): 48%
- remaining activity at 100 µM ([1]; 10 min): 3%
- LOX k2 (range) [1]: 0.40 (0.23–1.4) min^-1 and 0.4 min^-1 and 0.40 min^-1
- KI (inactivation) [1]: 200 µM
- fold lower affinity for LOX than phenylhydrazine ([1]; compared to phenylhydrazine): 3 fold
- IC50 [2, 4]: 2 µM
- remaining activity at 1 µM [2, 5]: 90%
- remaining activity at 2 µM [2, 5]: 80%
- remaining activity at 4 µM [2, 5]: 71%
- remaining activity at 8 µM [2, 5]: 54%
- remaining activity at 14 µM [2, 5]: 40%
- remaining activity at 20 µM [2, 5]: 33%
- remaining activity at 40 µM [2, 5]: 4%
- remaining activity at 500 µM [2, 5]: 0.7%
- remaining activity at 1 µM [2, 6]: 76%
- remaining activity at 2 µM [2, 6]: 52%
- remaining activity at 4 µM [2, 6]: 33%
- remaining activity at 8 µM [2, 6]: 13%
- remaining activity at 14 µM [2, 6]: 8%
- remaining activity at 20 µM [2, 6]: 4%
- LSDAO k2 (range) [2, 7]: 0.67 (0.37–3.3) min^-1 and 0.7 min^-1 and 0.67 min^-1
- KI (inactivation) [2, 8]: 50 µM and 54 µM

SMILES: CCCCCCCNN [compound 4]
- IC50 [1]: 40 µM
- Selectivity factor (LOX IC50 value divided by LSDAO IC50 value) [1]: 1300
- remaining activity at 7 µM ([1]; 4 min): 89%
- remaining activity at 20 µM ([1]; 4 min): 82%
- remaining activity at 100 µM ([1]; 4 min): 59%
- remaining activity at 7 µM ([1]; 10 min): 83%
- remaining activity at 20 µM ([1]; 10 min): 63%
- remaining activity at 100 µM ([1]; 10 min): 30%
- LOX k2 (range) [1]: 0.079 (0.073–0.087) min^-1 and 0.07–0.09 min^-1 and 0.079 min^-1
- KI (inactivation) [1]: 57 µM
- IC50 [2]: 0.03 µM
- remaining activity at 0.03 µM [2, 5]: 81%
- remaining activity at 0.08 µM [2, 5]: 60%
- remaining activity at 0.1 µM [2, 5]: 43%
- remaining activity at 0.2 µM [2, 5]: 22%
- remaining activity at 0.5 µM [2, 5]: 1%
- remaining activity at 1 µM [2, 5]: 1%
- remaining activity at 0.03 µM [2, 6]: 45%
- remaining activity at 0.08 µM [2, 6]: 15%
- remaining activity at 0.1 µM [2, 6]: 7%
- remaining activity at 0.2 µM [2, 6]: 2%
- LSDAO k2 (range) [2, 7]: 1.0 (0.75–1.6) min^-1 and 1.0 min^-1
- KI (inactivation) ([2]; read-out: LSDAO KI^-1 (range); Kitz-Wilson analysis, reversible binding constant): 0.9 µM

SMILES: NNC(=O)c1ccncc1 [hydrazide of isonicotinic acid]
- Inhibition of LOX in vivo [3]: can partially inhibit LOX
